According to patent publication US11427558B1, “Indazoles and azaindazoles as LRRK2 inhibitors” (ESCAPE Bio, Inc., priority 2019, dated 2022):

Key:
[1] = biological target: Recombinant wild type LRRK2 protein (Homo sapiens (Human), UniProt Q5S007); experiment: LRRK2 kinase activity, LanthaScreen TR-FRET assay (wild type); type: biochemical; conditions: LRRKtide 400 nM, 25 μM ATP, 60 min; read-out: LRRK2 WT IC50
Experimental: (§1) LRRK2 kinase activity was measured using a LanthaScreen™ Kinase Activity Assay from ThermoFisher Scientific. Recombinant wild type or G2019S-LRRK2 protein (Life Technologies, PR8604B or PV4881, respectively), was incubated with a fluorescein-labeled peptide substrate called LRRKtide that is based upon ezrin/radixin/moesin (ERM) (Life Technologies, PV4901) in the presence of ATP and serially diluted compound. […] Compound-dependent inhibition of the TR-FRET signal was used to generate a concentration-response curve for IC50 determination.
(§2) After 60 min incubation at room temperature, the reaction was stopped by addition of 10 μL of 2× stop solution containing a final concentration of 2 nM anti-pERM antibody and 10 mM EDTA. […] The ratio of the 520 nm and 495 nm emission was used to analyze the data.

[2] = biological target: Recombinant G2019S-LRRK2 protein (Homo sapiens (Human), UniProt Q5S007, G2019S); experiment: LRRK2 kinase activity, LanthaScreen TR-FRET assay (G2019S); type: biochemical; conditions: LRRKtide 400 nM, 25 μM ATP, 60 min
Experimental: as §1, §2

Sequence of Recombinant wild type LRRK2 protein (Q5S007 whole entry): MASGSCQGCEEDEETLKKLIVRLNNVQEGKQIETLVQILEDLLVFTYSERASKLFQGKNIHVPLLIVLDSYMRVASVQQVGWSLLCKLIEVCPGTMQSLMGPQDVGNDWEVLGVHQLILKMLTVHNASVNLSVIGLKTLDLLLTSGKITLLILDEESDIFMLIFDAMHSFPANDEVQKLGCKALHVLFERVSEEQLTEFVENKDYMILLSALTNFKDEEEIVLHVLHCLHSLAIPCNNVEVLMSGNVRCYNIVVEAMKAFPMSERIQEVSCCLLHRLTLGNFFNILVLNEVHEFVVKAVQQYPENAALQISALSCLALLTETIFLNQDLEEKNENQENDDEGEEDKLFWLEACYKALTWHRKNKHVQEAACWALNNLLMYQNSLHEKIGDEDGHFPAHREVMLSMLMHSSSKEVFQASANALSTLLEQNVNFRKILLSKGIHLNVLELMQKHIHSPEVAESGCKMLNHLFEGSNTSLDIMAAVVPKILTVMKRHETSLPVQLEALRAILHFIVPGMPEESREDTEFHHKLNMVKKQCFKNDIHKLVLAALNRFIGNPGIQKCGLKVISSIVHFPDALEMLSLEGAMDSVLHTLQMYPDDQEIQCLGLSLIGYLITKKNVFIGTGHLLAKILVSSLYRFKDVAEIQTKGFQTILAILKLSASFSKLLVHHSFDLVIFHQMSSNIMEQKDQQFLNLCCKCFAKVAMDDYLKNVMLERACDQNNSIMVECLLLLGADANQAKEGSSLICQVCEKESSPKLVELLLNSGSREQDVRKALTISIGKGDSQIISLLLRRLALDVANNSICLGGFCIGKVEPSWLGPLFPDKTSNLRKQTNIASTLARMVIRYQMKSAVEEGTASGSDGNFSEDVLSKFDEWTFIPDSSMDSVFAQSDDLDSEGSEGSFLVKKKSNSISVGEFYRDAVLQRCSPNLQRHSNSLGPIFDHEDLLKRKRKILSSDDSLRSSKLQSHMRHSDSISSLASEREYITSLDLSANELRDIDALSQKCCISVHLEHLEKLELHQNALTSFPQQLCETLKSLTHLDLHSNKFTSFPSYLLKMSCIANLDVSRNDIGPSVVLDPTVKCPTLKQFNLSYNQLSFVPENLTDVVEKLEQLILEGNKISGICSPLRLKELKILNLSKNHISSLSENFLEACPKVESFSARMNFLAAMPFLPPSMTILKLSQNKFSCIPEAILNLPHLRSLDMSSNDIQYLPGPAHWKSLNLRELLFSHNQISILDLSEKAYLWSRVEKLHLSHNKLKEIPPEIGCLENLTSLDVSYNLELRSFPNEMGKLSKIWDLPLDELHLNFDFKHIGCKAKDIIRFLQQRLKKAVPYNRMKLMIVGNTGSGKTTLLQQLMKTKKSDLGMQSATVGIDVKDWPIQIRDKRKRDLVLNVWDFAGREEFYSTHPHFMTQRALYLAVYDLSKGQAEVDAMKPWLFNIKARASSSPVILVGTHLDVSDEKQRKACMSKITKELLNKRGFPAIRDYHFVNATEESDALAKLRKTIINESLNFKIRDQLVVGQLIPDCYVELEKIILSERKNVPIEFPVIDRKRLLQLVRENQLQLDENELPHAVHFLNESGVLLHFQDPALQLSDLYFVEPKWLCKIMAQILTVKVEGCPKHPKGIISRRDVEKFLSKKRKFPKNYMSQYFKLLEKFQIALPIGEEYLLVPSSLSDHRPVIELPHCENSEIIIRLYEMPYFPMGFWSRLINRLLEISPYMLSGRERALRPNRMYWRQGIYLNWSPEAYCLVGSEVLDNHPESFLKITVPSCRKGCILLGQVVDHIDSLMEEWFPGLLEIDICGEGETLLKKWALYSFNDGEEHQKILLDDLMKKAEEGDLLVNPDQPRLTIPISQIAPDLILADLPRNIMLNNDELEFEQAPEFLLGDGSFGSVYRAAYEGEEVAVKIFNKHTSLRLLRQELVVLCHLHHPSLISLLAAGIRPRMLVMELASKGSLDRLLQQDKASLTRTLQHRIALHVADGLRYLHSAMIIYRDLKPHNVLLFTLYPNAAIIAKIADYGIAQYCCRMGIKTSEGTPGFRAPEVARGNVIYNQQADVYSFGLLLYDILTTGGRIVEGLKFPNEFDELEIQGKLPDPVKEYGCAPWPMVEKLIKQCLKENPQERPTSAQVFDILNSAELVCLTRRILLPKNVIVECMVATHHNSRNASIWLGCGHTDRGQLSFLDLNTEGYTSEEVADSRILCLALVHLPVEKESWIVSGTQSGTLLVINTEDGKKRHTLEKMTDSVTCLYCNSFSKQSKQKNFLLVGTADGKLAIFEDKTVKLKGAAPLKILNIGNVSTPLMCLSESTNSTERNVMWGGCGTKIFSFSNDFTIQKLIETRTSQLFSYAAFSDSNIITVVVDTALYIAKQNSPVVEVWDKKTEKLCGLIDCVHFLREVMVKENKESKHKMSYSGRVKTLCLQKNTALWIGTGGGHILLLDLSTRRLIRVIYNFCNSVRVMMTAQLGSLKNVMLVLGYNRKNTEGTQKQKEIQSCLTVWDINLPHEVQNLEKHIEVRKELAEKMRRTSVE
Sequence of Recombinant G2019S-LRRK2 protein (Q5S007 whole entry G2019S): as the sequence (Q5S007 whole entry) above, with G2019S counted along it

Row | Compound | IC50 [1] [nM] | IC50 [2] [nM]
1 | 2-Chloro-3-cyano-N-(3-(1-(difluoromethyl)-1H-pyrazol-3-yl)-1H-indazol-5-yl)benzamide [Example 166] | < 100 | < 100
2 | 4-Cyano-N-(3-(1-(difluoromethyl)-1H-pyrazol-3-yl)-1H-indazol-5-yl)-2-fluoro-6-methylbenzamide [Example 165] | < 100 | < 100
3 | N#Cc1cnc(C(=O)Nc2ccc3[nH]nc(-c4ccoc4)c3c2)c(F)c1 [Example 1, 5-Cyano-3-fluoro-N-(3-(furan-3-yl)-1H-indazol-5-yl)picolinamide] | < 100 | < 100
4 | N#Cc1ccc(C(=O)Nc2ccc3[nH]nc(-c4ccoc4)c3c2)c(Br)c1 [Example 2, 2-Bromo-4-cyano-N-(3-(furan-3-yl)-1H-indazol-5-yl)benzamide] | < 100 | < 100
5 | N#Cc1ccc(C(=O)Nc2ccc3[nH]nc(-c4ccoc4)c3c2)c(F)c1 [Example 3, 4-Cyano-2-fluoro-N-(3-(furan-3-yl)-1H-indazol-5-yl)benzamide] | < 100 | < 100
6 | N#Cc1ccc(C(=O)Nc2ccc3[nH]nc(-c4ccoc4)c3c2)c(I)c1 [Example 4, 4-Cyano-N-(3-(furan-3-yl)-1H-indazol-5-yl)-2-iodobenzamide] | < 100 | < 100
7 | N#Cc1ccc(C(=O)Nc2ccc3[nH]nc(-c4ccoc4)c3c2)c(Cl)c1 [Example 5, 2-Chloro-4-cyano-N-(3-(furan-3-yl)-1H-indazol-5-yl)benzamide] | < 100 | < 100
8 | N#Cc1ccc(C(=O)Nc2ccc3[nH]nc(-c4ccoc4)c3c2)c(C(F)(F)F)c1 [Example 6, 4-Cyano-N-(3-(furan-3-yl)-1H-indazol-5-yl)-2-(trifluoromethyl)benzamide] | < 100 | < 100
9 | N#Cc1cc(F)c(C(=O)Nc2ccc3[nH]nc(-c4ccoc4)c3c2)c(F)c1 [Example 7, 4-Cyano-2,6-difluoro-N-(3-(furan-3-yl)-1H-indazol-5-yl)benzamide] | < 100 | < 100
10 | Cc1nc(C#N)ccc1C(=O)Nc1ccc2[nH]nc(-c3ccoc3)c2c1 [Example 8, 6-Cyano-N-(3-(furan-3-yl)-1H-indazol-5-yl)-2-methylnicotinamide] | 100 to 1000 | < 100
11 | N#Cc1ccc(C(=O)Nc2ccc3[nH]nc(-c4ccoc4)c3c2)cn1 [Example 9, 6-Cyano-N-(3-(furan-3-yl)-1H-indazol-5-yl)nicotinamide] | 100 to 1000 | < 100
12 | Cc1cc(C#N)cc(C)c1C(=O)Nc1ccc2[nH]nc(-c3ccoc3)c2c1 [Example 10, 4-Cyano-N-(3-(furan-3-yl)-1H-indazol-5-yl)-2,6-dimethylbenzamide] | < 100 | < 100
13 | N#Cc1ccc(C(=O)Nc2ccc3[nH]nc(-c4ccoc4)c3c2)cc1 [Example 11, 4-Cyano-N-(3-(furan-3-yl)-1H-indazol-5-yl)benzamide] | 100 to 1000 | < 100
14 | Cc1cc(C#N)ccc1C(=O)Nc1ccc2[nH]nc(C)c2c1 [Example 12, 4-Cyano-2-methyl-N-(3-methyl-1H-indazol-5-yl)benzamide] | 100 to 1000 | < 100
15 | Cc1nc(C(=O)Nc2ccc3[nH]nc(-c4ccoc4)c3c2)ccc1C#N [Example 13, 5-Cyano-N-(3-(furan-3-yl)-1H-indazol-5-yl)-6-methylpicolinamide] | 100 to 1000 | < 100

Row | Compound | IC50 [1] [nM] | IC50 [2] [nM]
17 | COc1cc(C#N)ccc1C(=O)Nc1ccc2[nH]nc(-c3ccoc3)c2c1 [Example 15, 4-Cyano-N-(3-(furan-3-yl)-1H-indazol-5-yl)-2-methoxybenzamide] | 100 to 1000 | < 100
18 | N#Cc1ccc(C(=O)Nc2ccc3[nH]nc(-c4ccoc4)c3c2)nc1 [Example 16, 5-Cyano-N-(3-(furan-3-yl)-1H-indazol-5-yl)picolinamide] | 100 to 1000 | < 100
19 | Cc1ccc(C#N)cc1C(=O)Nc1ccc2[nH]nc(-c3ccoc3)c2c1 [Example 17, 5-Cyano-N-(3-(furan-3-yl)-1H-indazol-5-yl)-2-methylbenzamide] | < 100 | < 100
20 | Cc1cc(C#N)ccc1C(=O)Nc1ccc2[nH]nc(-c3ccoc3)c2c1 [Example 18, 4-Cyano-N-(3-(furan-3-yl)-1H-indazol-5-yl)-2-methylbenzamide] | < 100 | < 100
21 | Cc1c(C#N)cccc1C(=O)Nc1ccc2[nH]nc(-c3ccoc3)c2c1 [Example 19, 3-Cyano-N-(3-(furan-3-yl)-1H-indazol-5-yl)-2-methylbenzamide] | < 100 | < 100
22 | N#Cc1ncc(C(=O)Nc2ccc3[nH]nc(-c4ccoc4)c3c2)s1 [Example 20, 2-Cyano-N-(3-(furan-3-yl)-1H-indazol-5-yl)thiazole-5-carboxamide] | 100 to 1000 | < 100
23 | N#Cc1cccc(C(=O)Nc2ccc3[nH]nc(-c4ccncc4)c3c2)c1 [Example 21, 3-Cyano-N-(3-(pyridin-4-yl)-1H-indazol-5-yl)benzamide] | < 100 | < 100
24 | N#Cc1cc(C(=O)Nc2ccc3[nH]nc(-c4ccncc4)c3c2)ccn1 [Example 22, 2-Cyano-N-(3-(pyridin-4-yl)-1H-indazol-5-yl)isonicotinamide] | < 100 | < 100
25 | N#Cc1ccnc(C(=O)Nc2ccc3[nH]nc(-c4ccncc4)c3c2)c1 [Example 23, 4-Cyano-N-(3-(pyridin-4-yl)-1H-indazol-5-yl)picolinamide] | 100 to 1000 | < 100
26 | N#Cc1cncc(C(=O)Nc2ccc3[nH]nc(-c4ccncc4)c3c2)c1 [Example 24, 5-Cyano-N-(3-(pyridin-4-yl)-1H-indazol-5-yl)nicotinamide] | 100 to 1000 | 100 to 1000
27 | N#Cc1ncc(C(=O)Nc2ccc3[nH]nc(-c4ccncc4)c3c2)cn1 [Example 25, 2-Cyano-N-(3-(pyridin-4-yl)-1H-indazol-5-yl)pyrimidine-5-carboxamide] | 100 to 1000 | 100 to 1000
28 | Cc1c(C(=O)Nc2ccc3[nH]nc(-c4ccccc4)c3c2)cc(C#N)n1C [Example 26, 5-Cyano-1,2-dimethyl-N-(3-phenyl-1H-indazol-5-yl)-1H-pyrrole-3-carboxamide] | 100 to 1000 | < 100
29 | Cc1oc(C#N)cc1C(=O)Nc1ccc2[nH]nc(-c3ccccc3)c2c1 [Example 27, 5-Cyano-2-methyl-N-(3-phenyl-1H-indazol-5-yl)furan-3-carboxamide] | 100 to 1000 | < 100
30 | Cc1ccc(-c2n[nH]c3ccc(NC(=O)c4ncc(C#N)cc4C)cc23)cc1C [Example 28, 5-Cyano-N-(3-(3,4-dimethylphenyl)-1H-indazol-5-yl)-3-methylpicolinamide] | 100 to 1000 | < 100
31 | Cc1cc(C#N)cnc1C(=O)Nc1ccc2[nH]nc(-c3ccco3)c2c1 [Example 29, 5-Cyano-N-(3-(furan-2-yl)-1H-indazol-5-yl)-3-methylpicolinamide] | 100 to 1000 | < 100
32 | Cc1cc(C#N)cnc1C(=O)Nc1ccc2[nH]nc(-c3ccoc3)c2n1 [Example 105, 5-Cyano-N-(3-(furan-3-yl)-1H-pyrazolo[4,3-b]pyridin-5-yl)-3-methylpicolinamide] | 100 to 1000 | –
